According to patent US4331659A, “Antibiotic U-62,162 and process of making” (The Upjohn Company, priority 1980, dated 1982):
Values after ≈ are worked out from the molar mass of the structure shown.

Columns and labels:
Enterococcus sp. = test: standard agar dilution assay (MIC); assay type: cell-based; conditions: UC 701; 24 hours, 28° to 37° C.
Experimental: (§1) The antibacterial assay is a standard agar dilution assay. The MIC is determined by standard methods using two-fold dilutions of the antibiotic in Brain Heart Infusion Broth (Difco Lab., Detroit, Michigan). The inocula are overnight cultures of the test organisms, diluted so that the final population contains approximately 10^5 cells/ml. The solutions are incubated at 28° to 37° C. for 24 hours. The lowest antibiotic concentration which allows no growth=MIC or minimum inhibitory concentration.

Escherichia coli = test: standard agar dilution assay (MIC); assay type: cell-based; conditions: UC 45; 24 hours, 28° to 37° C.
Experimental: as §1

Klebsiella pneumoniae = test: standard agar dilution assay (MIC); assay type: cell-based; conditions: UC 58; 24 hours, 28° to 37° C.
Experimental: as §1

Pseudomonas aeruginosa = test: standard agar dilution assay (MIC); assay type: cell-based; conditions: UC 95; 24 hours, 28° to 37° C.
Experimental: as §1

[1] = tested on: Salmonella schottmuelleri; test: standard agar dilution assay (MIC); assay type: cell-based; conditions: UC 126; 24 hours, 28° to 37° C.
Experimental: as §1

Staphylococcus aureus = test: standard agar dilution assay (MIC); assay type: cell-based; conditions: 24 hours, 28° to 37° C.
Experimental: as §1

Streptococcus faecalis = test: standard agar dilution assay (MIC); assay type: cell-based; conditions: UC 694; 24 hours, 28° to 37° C.
Experimental: as §1

Streptococcus pneumoniae = test: standard agar dilution assay (MIC); assay type: cell-based; conditions: UC 41; 24 hours, 28° to 37° C.
Experimental: as §1

Streptococcus pyogenes = test: standard agar dilution assay (MIC); assay type: cell-based; conditions: UC 152; 24 hours, 28° to 37° C.
Experimental: as §1

H. influenzae = test: standard agar-dilution method, MIC against ampicillin-resistant and ampicillin-susceptible H. influenzae type b; assay type: cell-based
Experimental: Antibiotic U-62,162 was also tested for activity against a group of ampicillin-resistant and ampicillin-susceptible H. influenzae type b.
A solution of the compound was prepared in dimethylsulfoxide (DMSO), diluted in Brain Heart Infusion Broth (BHIB) and MIC's were determined using the standard agar-dilution method.

Gram-positive bacteria = test: antibacterial activity against Gram-positive bacteria; assay type: cell-based
Experimental: as §1

S. aureus 6029 = test: disc plate assay (zone of inhibition, BU); assay type: cell-based; conditions: essentially pure crystalline, after countercurrent distribution
Experimental: Buffered (pH 5.8) silica gel is prepared by treating 1 kg of silica gel 60 with a solution of 54.4 g of KH2 PO4 in 800 ml of water. This is dried 16 hours at 110°. A 1 inch (diameter) column containing 60 g of buffered (pH 5.8) silica gel is poured in a slurry with chloroform. To this is added 250 mg of crude U-62,162, prepared as described above, in chloroform. The column is developed first with 120 ml of CHCl3, then with CHCl3 :MeOH (94:6 v/v). Fractions of 5 ml each are collected beginning when the mixed solvent is introduced. They are assayed by plating 12 mm discs containing […] aliquots on S. aureus 6029 trays. Fractions 55-65, containing most of the activity, are pooled and evaporated, 90 mg, […], 17,200 total BU.
A preparation of antibiotic U-62,162, as described above, (3 g) is distributed for 300 transfers in the two-phase solvent system afforded by ethyl acetate:ethanol (95%):cyclohexane:water (2:3:3:2 v/v). Phase volumes are 10 ml each. Fractions 120-150 are combined and the residue from these after evaporation affords essentially pure crystalline antibiotic U-62,162, 1 g, assaying 800-1500 BU/mg against S. aureus 6029. A BU is the amount of material distributed on a 12 mm disc which will give a 20 mm zone of inhibition.

Solubilities = assay type: physicochemical; conditions: lower alcohols (1-4 carbons), esters, ethers, aromatic hydrocarbons, dimethylformamide, dimethylsulfoxide, lower ketones (3-6 carbons)
stability to pH = assay type: physicochemical; conditions: pH 8.5 and higher

With `CC(C)=CC(C)CC(C)/C=C/C(=O)NC1=CC(O)(CCCCC(=O)O)C2OC2C1=O` (centres unmarked) [U-62,162] the “Minimum Inhibitory Concentration” value (Enterococcus sp.) was 7.8 µg/mL, the “Minimum Inhibitory Concentration” value (Escherichia coli) was > 1000 µg/mL and the “Minimum Inhibitory Concentration” value (Klebsiella pneumoniae) was > 1000 µg/mL. For the same compound, the “Minimum Inhibitory Concentration” value (Pseudomonas aeruginosa) was > 1000 µg/mL, the “Minimum Inhibitory Concentration” value [1] was > 1000 µg/mL and the “Minimum Inhibitory Concentration” value (Staphylococcus aureus; UC 76) was 1.0 µg/mL. The “Minimum Inhibitory Concentration” value (Staphylococcus aureus; UC 6685) was 1.0 µg/mL, the “Minimum Inhibitory Concentration” value (Staphylococcus aureus; UC 6690) was 1.0 µg/mL and the “Minimum Inhibitory Concentration” value (Streptococcus faecalis) was 7.8 µg/mL. The “Minimum Inhibitory Concentration” value (Streptococcus pneumoniae) was 1.0 µg/mL, the “Minimum Inhibitory Concentration” value (Streptococcus pyogenes) was 125 µg/mL and the MIC (H. influenzae; UC 6482, ampicillin susceptible) was 62.5 µg/mL (≈ 149 µM). It also gave an MIC (H. influenzae; UC 6483, ampicillin resistant) of 31.25 µg/mL (≈ 74.5 µM), an MIC (H. influenzae; UC 6484, ampicillin resistant) of 31.25 µg/mL (≈ 74.5 µM) and an MIC (H. influenzae; UC 6485, ampicillin susceptible) of 31.25 µg/mL (≈ 74.5 µM). For the same compound, the MIC (H. influenzae; UC 6486, ampicillin susceptible) was 31.25 µg/mL (≈ 74.5 µM), the MIC (H. influenzae; UC 6582, ampicillin resistant) was 31.25 µg/mL (≈ 74.5 µM) and the MIC (H. influenzae; UC 6583, ampicillin resistant) was 31.25 µg/mL (≈ 74.5 µM). For the same compound, the MIC (H. influenzae; UC 6585, ampicillin resistant) was 31.25 µg/mL (≈ 74.5 µM), the MIC (H. influenzae; UC 6586, ampicillin resistant) was 31.25 µg/mL (≈ 74.5 µM) and the MIC (H. influenzae; UC 6587, ampicillin resistant) was 31.25 µg/mL (≈ 74.5 µM). It also gave an MIC (H. influenzae; UC 6589, ampicillin resistant) of 31.25 µg/mL (≈ 74.5 µM), an MIC (H. influenzae; UC 6592, ampicillin resistant) of 15.6 µg/mL (≈ 37.2 µM) and an MIC (H. influenzae; UC 6595, ampicillin resistant) of 31.25 µg/mL (≈ 74.5 µM). For the same compound, the MIC (H. influenzae; UC 6596, ampicillin resistant) was 31.25 µg/mL (≈ 74.5 µM), the MIC (H. influenzae; UC 6597, ampicillin susceptible) was 31.25 µg/mL (≈ 74.5 µM) and the MIC (H. influenzae; UC 6598, ampicillin susceptible) was 31.25 µg/mL (≈ 74.5 µM). For the same compound, the “activity against H. influenzae type b cultures (in words)” value (H. influenzae; all of the cultures tested) was “moderate activity”, the “activity against various Gram-positive bacteria (in words)” value (Gram-positive bacteria) was “active” and the “potency (BU; amount on a 12 mm disc which will give a 20 mm zone of inhibition)” value (S. aureus 6029) was 800-1500 BU/mg. The Solubilities (Solubilities) was “soluble” and the stability (stability to pH) was “unstable”.
